The values that follow come from patent US20060074084A1, “Inhibitors of soluble adenylate cyclase” (priority 2004, published 2006).

The term IC50 denotes the concentration at which inhibition is half-maximal. High values mean weaker potency in that assay, low ones greater potency in that assay. By solubility is commonly meant the dissolved amount per volume that the medium holds.

For data set [1], the target named is soluble, sperm-specific adenylate cyclase (sAC) (Homo sapiens, UniProt Q96PN6). The experiment in a line: sAC-Assay (enzyme test, HTRF cAMP detection). The format is biochemical. The source says: In a suitable buffer system, the soluble, sperm-specific adenylate cyclase catalyzes the reaction of adenosine triphosphate (ATP) to cyclic adenosine monophosphate (cAMP) and pyrophosphate. Free cAMP that is generated in this way is then used in a competitive detection process, in which the binding of a europium kryptate (Eu[K])-labeled anti-cAMP antibody (anti cAMP-Eu[K]-AK) to a cAMP-molecule-labeled, modified allophycocyanine-1 molecule (cAMP-XL665) is prevented. In the absence of exogenic cAMP, after excitation at 335 nm, it results in a fluorescence resonance energy transfer (FRET) between the anti cAMP-Eu[K]-AK (FRET-donor) and the cAMP-XL665 molecule (FRET-acceptor). This process is quantified at different times (time-resolved) based on the emission of FRET-acceptor XL665 (665 nm and 620 nm). A signal drop (measured as a wave ratio; calculation formula: [(E665 nm/E620 nm)×10000]) can be attributed to the presence of cAMP and thus to the activity of sAC.
Sequence of soluble, sperm-specific adenylate cyclase (sAC) (Q96PN6 whole entry): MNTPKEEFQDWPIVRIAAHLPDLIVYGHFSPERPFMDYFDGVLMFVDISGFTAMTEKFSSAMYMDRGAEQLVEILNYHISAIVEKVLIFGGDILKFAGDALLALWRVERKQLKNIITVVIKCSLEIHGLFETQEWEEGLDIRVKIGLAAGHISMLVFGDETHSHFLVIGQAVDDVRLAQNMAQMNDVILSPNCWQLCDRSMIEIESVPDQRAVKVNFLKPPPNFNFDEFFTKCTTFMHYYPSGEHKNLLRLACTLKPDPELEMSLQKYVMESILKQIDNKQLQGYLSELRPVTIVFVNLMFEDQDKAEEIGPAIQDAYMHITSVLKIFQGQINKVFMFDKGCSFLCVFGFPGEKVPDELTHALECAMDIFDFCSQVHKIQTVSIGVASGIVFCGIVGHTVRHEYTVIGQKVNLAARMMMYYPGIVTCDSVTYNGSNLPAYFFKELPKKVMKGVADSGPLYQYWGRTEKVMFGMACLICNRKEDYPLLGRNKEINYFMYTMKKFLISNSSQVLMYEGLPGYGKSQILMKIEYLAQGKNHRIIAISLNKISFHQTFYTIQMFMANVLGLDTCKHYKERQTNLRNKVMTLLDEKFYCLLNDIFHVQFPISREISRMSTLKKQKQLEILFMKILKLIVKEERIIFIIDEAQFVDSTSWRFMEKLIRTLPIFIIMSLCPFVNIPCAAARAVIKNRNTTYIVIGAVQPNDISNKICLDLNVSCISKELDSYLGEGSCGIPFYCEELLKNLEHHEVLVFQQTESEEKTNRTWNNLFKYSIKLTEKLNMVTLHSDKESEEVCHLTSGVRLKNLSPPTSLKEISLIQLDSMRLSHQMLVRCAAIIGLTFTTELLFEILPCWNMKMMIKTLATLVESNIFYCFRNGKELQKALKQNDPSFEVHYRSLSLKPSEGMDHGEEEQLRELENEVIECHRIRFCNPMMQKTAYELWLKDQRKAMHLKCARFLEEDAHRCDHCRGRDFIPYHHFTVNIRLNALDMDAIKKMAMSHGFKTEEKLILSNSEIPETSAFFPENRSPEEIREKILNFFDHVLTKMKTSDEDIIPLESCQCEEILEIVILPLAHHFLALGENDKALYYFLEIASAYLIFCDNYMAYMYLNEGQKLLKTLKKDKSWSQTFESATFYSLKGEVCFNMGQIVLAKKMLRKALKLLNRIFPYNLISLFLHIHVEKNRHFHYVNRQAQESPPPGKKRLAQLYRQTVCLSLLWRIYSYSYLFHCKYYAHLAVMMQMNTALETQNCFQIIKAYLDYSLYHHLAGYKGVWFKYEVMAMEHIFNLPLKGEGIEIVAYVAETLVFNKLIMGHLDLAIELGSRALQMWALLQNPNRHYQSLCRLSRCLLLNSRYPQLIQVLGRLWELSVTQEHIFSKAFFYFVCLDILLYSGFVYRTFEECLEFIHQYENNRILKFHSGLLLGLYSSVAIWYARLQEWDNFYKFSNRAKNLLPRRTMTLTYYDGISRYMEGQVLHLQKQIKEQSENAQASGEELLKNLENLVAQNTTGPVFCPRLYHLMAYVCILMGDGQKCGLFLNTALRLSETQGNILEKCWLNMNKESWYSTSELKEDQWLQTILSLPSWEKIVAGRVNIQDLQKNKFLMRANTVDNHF
First, 1.5 μl of the test substance (in 30% DMSO), only 30% DMSO in the solvent controls, is introduced per recess in a 384-hole test plate (polystyrene; 384, NV). Then, 10 μl of a dilute sAC enzyme solution is recovered (enzyme stock solution in 300 mmol of NaCl, 10% glycerol; pH 7.6; intermediate and final enzyme dilution a) 1:10 and b) 1:2000 in each case in: 1.0 mmol of MnCl2; 0.2% BSA; 50 mmol of tris, pH 7.5 in H2O). The enzyme reaction is started by adding 5 μl of the ATP-substrate solution (200 μmol of ATP in H2O) and is completed after incubation (25 minutes at room temperature) by the addition of 5 μl of stop solution (200 μmol of EDTA in PBS).
Then, 8 μl of detection solution 1 is introduced into a recess of the 384-hole measuring plate (measuring plate: polystyrene; 384, SV—black; detection solution 1:50 μl of cAMP-XL665; 950 μl of reconstitution buffer; 2200 [[…] of PBS; cAMP-XL665: production by the addition of 5 ml of H2O to the freeze-dried product as specified by Cis Bio Kit: #62AMPPEC instructions; storage: aliquoted at −80° C.). Then, 3 μl from the 91.5 μl is added to the corresponding recess of the test plate. Finally, the addition of 8 μl of detection solution 2 (detection solution 2: 50 μl of anti cAMP-Eu[K]-AK; 950 μl of reconstitution buffer; 2200 μl of PBS; anti cAMP-Eu[K]-AK: production as specified by Cis Bio Kit: #62AMPPEC instructions; storage: aliquoted at −80° C.) is carried out.
After an additional incubation of 90 minutes at room temperature, the HTRF result is measured either on the Packard Discovery or with the RubiStar HTRF measuring device (Delay: 50 μs; Integration time: 400 μs).
In general terms: Time-resolved FRET reads energy transfer from a long-lived donor to a nearby acceptor.

The nature of data set [2]: Solubility. The format is physicochemical.
[3] abbreviates: comparison with known compounds in the enzyme test.
The mark [4] stands for this setting: Biological Data table, read-out: Solubility.

Converted amounts (≈) assume the structure as drawn. Where two headings read alike, the source gives them in different places.

Turning to `CC(C)(C)c1ccc(S(=O)(=O)Nc2ccc3[nH]c(C(=O)NC4CCOCC4)c(-c4ccccc4)c3c2)cc1` [Example 40, 5-(4-tert-Butylbenzenesulfonylamino)-3-phenyl-1H-indole-2-carboxylic acid-(tetrahydropyran-4-yl)amide], the concentration for half-maximal inhibition (IC50) in data set [1] (Biological Data table) and in data set [1] (setting [3]) was 86 nM each time. In addition, the solubility in data set [2] (setting [4]) and in data set [2] (comparison table) was 5 µg/mL (≈ 9.4 µM) each time.
Take `CCCNC(=O)c1[nH]c2ccc(NS(=O)(=O)c3ccc(C(C)(C)C)cc3)cc2c1-c1ccccc1` [Example 9, 5-(4-tert-Butylbenzenesulfonylamino)-3-phenyl-1H-indole-2-carboxylic acid propylamide]: in data set [1] (Biological Data table), the half-maximal inhibitory concentration (IC50) came out at 5300 nM. Also, the solubility in data set [2] (setting [4]) was determined as 1.5 µg/mL (≈ 3.06 µM).
For `C[C@]12CC[C@@H]3c4ccc(O)c(O)c4CC[C@H]3[C@@H]1CC[C@@H]2O` [4-OH-Estradiol, reference compound], in data set [1] (setting [3]), inhibition was half-maximal at 13000 nM (IC50).
`CN1CCN(NC(=O)c2[nH]c3ccc(NS(=O)(=O)c4ccc(C(C)(C)C)cc4)cc3c2-c2ccccc2)CC1` [Example 20, 5-(4-tert-Butylbenzenesulfonylamino)-3-phenyl-1H-indole-2-carboxylic acid-(4-methylpiperazin-1-yl)amide] had an IC50 in data set [1] (Biological Data table) of 2600 nM.
As for `CN(C)CCNC(=O)c1[nH]c2ccc(NS(=O)(=O)c3ccc(C(C)(C)C)cc3)cc2c1-c1ccccc1Cl` [Example 24, 5-(4-tert-Butylbenzenesulfonylamino)-3-(2-chlorophenyl)-1H-indole-2-carboxylic acid-(2-dimethylaminoethyl)amide], half-maximal inhibition in data set [1] (Biological Data table) (IC50) required 1600 nM. In data set [2] (setting [4]), the solubility amounted to 8 µg/mL (≈ 14.5 µM).
In data set [1] (setting [3]), `C[C@]12CC[C@@H]3c4cc(O)c(O)cc4CC[C@H]3[C@@H]1CC[C@@H]2O` [2-OH-Estradiol, reference compound] showed a half-maximal inhibitory concentration (IC50) of 11000 nM.
Turning to `CN(C)CCNC(=O)c1[nH]c2ccc(NS(=O)(=O)c3ccc(C(C)(C)C)cc3)cc2c1-c1ccccc1` [Example 6, 5-(4-tert-Butylbenzenesulfonylamino)-3-phenyl-1H-indole-2-carboxylic acid-(2-dimethylaminoethyl)amide], the solubility in data set [2] (setting [4]) and in data set [2] (comparison table) was 0.1 µg/mL (≈ 0.193 µM) each time.
For `CC(C)(C)c1ccc(S(=O)(=O)Nc2ccc3[nH]c(C(=O)NC4CCCCC4)c(-c4ccccc4)c3c2)cc1` [Example 3, 5-(4-tert-Butylbenzenesulfonylamino)-3-phenyl-1H-indole-2-carboxylic acid-cyclohexylamide], the IC50 in data set [1] (Biological Data table) was determined as 2000 nM. Moreover, in data set [2] (setting [4]), the solubility turned out to be 1 µg/mL (≈ 1.89 µM).
In the case of `CC(C)(C)c1ccc(S(=O)(=O)Nc2ccc3[nH]c(C(=O)Nc4ccncc4)c(-c4ccccc4)c3c2)cc1` [Example 21, 5-(4-tert-Butylbenzenesulfonylamino)-3-phenyl-1H-indole-2-carboxylic acid-pyrindin-4-ylamide], in data set [1] (Biological Data table), it took 3400 nM to reach half-maximal inhibition (IC50). For the same compound, the solubility in data set [2] (setting [4]) was found to be 0.1 µg/mL (≈ 0.191 µM).
As for `CC(C)(C)c1ccc(S(=O)(=O)Nc2ccc3[nH]c(C(=O)NCCO)c(-c4ccccc4)c3c2)cc1` [Example 37, 5-(4-tert-Butylbenzenesulfonylamino)-3-phenyl-1H-indole-2-carboxylic acid-(2-hydroxyethyl)amide], it took 70 nM to reach half-maximal inhibition in data set [1] (Biological Data table) (IC50). Moreover, the solubility in data set [2] (setting [4]) was found to be 13 µg/mL (≈ 26.4 µM).
For the compound `CN(C)CCNC(=O)c1[nH]c2ccc(NS(=O)(=O)c3ccc(C(C)(C)C)cc3)cc2c1-c1cccc(Cl)c1` [Example 25, 5-(4-tert-Butylbenzenesulfonylamino)-3-(3-chlorophenyl)-1H-indole-2-carboxylic acid-(2-dimethylaminoethyl)amide], the half-inhibitory concentration (IC50) in data set [1] (Biological Data table) and in data set [1] (setting [3]) was 630 nM throughout. In addition, the solubility in data set [2] (setting [4]) and in data set [2] (comparison table) was 5 µg/mL (≈ 9.04 µM) in each case.
On to `CN(C)CCNC(=O)c1[nH]c2ccc(NS(=O)(=O)c3ccc(C(C)(C)C)cc3)cc2c1-c1cccnc1` [Example 32, 5-(4-tert-Butylbenzenesulfonylamino)-3-pyridin-3-yl-1H-indole-2-carboxylic acid-(2-dimethylaminoethyl)amide], for which, in data set [1] (Biological Data table), the 50% inhibitory concentration (IC50) is 1300 nM. In addition, the solubility in data set [2] (setting [4]) came to 55 µg/mL (≈ 106 µM).
For `CCCNC(=O)c1[nH]c2ccc(NS(=O)(=O)c3ccc(OC(F)(F)F)cc3)cc2c1-c1ccccc1` [Example 10, 5-(4-(Trifluoromethoxy)benzenesulfonylamino)-3-phenyl-1H-indole-2-carboxylic acid propylamide], in data set [2] (setting [4]), the solubility is 2.1 µg/mL (≈ 4.06 µM).
Compound `COc1ccc(-c2c(C(=O)NCCN(C)C)[nH]c3ccc(NS(=O)(=O)c4ccc(C(C)(C)C)cc4)cc23)cc1` [Example 31, 5-(4-tert-Butylbenzenesulfonylamino)-3-(4-methoxyphenyl)-1H-indole-2-carboxylic acid-(2-dimethylaminoethyl)amide] came in with an IC50 in data set [1] (Biological Data table) of 1200 nM. The solubility in data set [2] (setting [4]) amounted to 7 µg/mL (≈ 12.8 µM).
Compound `CC(C)(C)c1ccc(S(=O)(=O)Nc2ccc3[nH]c(C(=O)NC4CC4)c(-c4ccccc4)c3c2)cc1` [Example 1, 5-(4-tert-Butylbenzenesulfonylamino)-3-phenyl-1H-indole-2-carboxylic acid-cyclopropylamide] had an IC50 in data set [1] (Biological Data table) of 3400 nM. Further, in data set [2] (setting [4]), the solubility came to 1 µg/mL (≈ 2.05 µM).
Regarding `CC(C)(C)c1ccc(S(=O)(=O)Nc2ccc3[nH]c(C(=O)Nc4cccnc4)c(-c4ccccc4)c3c2)cc1` [Example 2, 5-(4-tert-Butylbenzenesulfonylamino)-3-phenyl-1H-indole-2-carboxylic acid-pyridin-3-ylamide], the solubility in data set [2] (setting [4]) came out at 1 µg/mL (≈ 1.91 µM).
Compound `Cc1ccc(-c2c(C(=O)NCCN(C)C)[nH]c3ccc(NS(=O)(=O)c4ccc(C(C)(C)C)cc4)cc23)cc1` [Example 29, 5-(4-tert-Butylbenzenesulfonylamino)-3-(4-methylphenyl)-1H-indole-2-carboxylic acid-(2-dimethylaminoethyl)amide] registered an IC50 in data set [1] (Biological Data table) of 2000 nM. Besides, in data set [2] (setting [4]), the solubility amounted to 7 µg/mL (≈ 13.1 µM).
With `Cc1ccccc1-c1c(C(=O)NCCN(C)C)[nH]c2ccc(NS(=O)(=O)c3ccc(C(C)(C)C)cc3)cc12` [Example 28, 5-(4-tert-Butylbenzenesulfonylamino)-3-(2-methylphenyl)-1H-indole-2-carboxylic acid-(2-dimethylaminoethyl)amide], in data set [1] (Biological Data table), the half-inhibitory concentration (IC50) was 2700 nM. Besides, the solubility in data set [2] (setting [4]) came out at 5 µg/mL (≈ 9.39 µM).
As for `CN(C)CCNC(=O)c1[nH]c2ccc(NS(=O)(=O)c3ccc(C(C)(C)C)cc3)cc2c1-c1ccc(Cl)cc1` [Example 26, 5-(4-tert-Butylbenzenesulfonylamino)-3-(4-chlorophenyl)-1H-indole-2-carboxylic acid-(2-dimethylaminoethyl)amide], 9900 nM corresponded to half-maximal inhibition in data set [1] (Biological Data table) (IC50). Further, the solubility in data set [2] (setting [4]) worked out at 3 µg/mL (≈ 5.42 µM).
Regarding `CC(C)(C)c1ccc(S(=O)(=O)Nc2ccc3[nH]c(C(=O)NCCN4CCOCC4)c(-c4ccccc4)c3c2)cc1` [Example 19, 5-(4-tert-Butylbenzenesulfonylamino)-3-phenyl-1H-indole-2-carboxylic acid-(2-morpholin-4-ylethyl)amide], in data set [1] (Biological Data table), the IC50 came to 150 nM. Further, the solubility in data set [2] (setting [4]) came out at 4 µg/mL (≈ 7.13 µM).
